Columns and labels:
[1] = tested on: rat spinal cord injury model; assay: Hind limb motor function (BBB scale) in rat spinal cord injury model, crush method with forceps; format: in vivo; conditions: 60 μg/animal into the dura, seventh day after spinal cord injury, compared with physiological saline-administered group
Description: (§1) A spinal cord injury model (crush model with forceps) was prepared as described below. Twelve-week-old male Wistar rats were used as experimental animals. The animals were shaved from neck to hip with an electric clipper under pentobarbital anesthesia (50 mg/kg body weight) and the skin was cleansed with 70% ethanol and Isodine (product of Meiji Seika Kaisha, Ltd.). After dorsal skin incision, the thoracic spine from T5 to T10 was exposed, the sixth thoracic spine (T6 thoracic spine) was subjected to hemi-laminectomy, and a small incision was made on the dura. Following local anesthesia with Xylocaine (Astra Zeneca), a forceps (with the tip trimmed to 0.3 mm) was inserted at the position of T6 until its tip reached the vertebral body, and the spinal cord was crushed by sandwiching it from both sides for 10 sec. […]
After injury of the spinal cord, the hind limb motor function was assessed daily for 7 days by two independent blind examiners according to the method of Basso et al. (refer to Basso D M et al (1995), (1996)) using Basso-Beeattie-Bresnahan (BBB) Scale, and their average score was taken as a final assessment score. […]
The BBB score was evaluated using Tukey's nonparametric multiple comparison test.

interleukin-12 (IL-12) = conditions: reported by Asari et al. (Xu H et al. (2005)); cited from earlier work
MRL-lpr/lpr mouse = conditions: administration of L4; Xu H et al. (2005); cited from earlier work
[2] = tested on: rat spinal cord injury model; assay: Spinal cord evoked potential (SCEP) in rat spinal cord injury model, crush method with forceps; format: in vivo; conditions: 60 μg/animal into the dura, seventh day after spinal cord injury, compared with saline-administered group
Description: as §1
On the seventh day after the injury of the spinal cord, endotracheal intubation was performed into the experimental animal under halothane anesthesia (4.0% at the beginning, 1.0% during maintenance). […] Catheter electrodes were inserted into the experimental animal from the space between the second/third cervical vertebrae and the space between the 13th thoracic vertebra/first lumbar vertebra, and spinal cord evoked potential (SCEP) was measured with an electromyograph (Counterpoint, Dantec) after applying a supramaximal stimulus (stimulus frequency; 1 Hz, duration; 0.05 msec). […]

CC(=O)N[C@H]1C(O)O[C@H](COS(=O)(=O)O)[C@@H](O[C@@H]2O[C@H](COS(=O)(=O)O)[C@H](O)[C@H](O)[C@H]2O)[C@@H]1O (stereo partly drawn) [L4, Gal(6S)β1-4GlcNAc(6S)]
hind limb motor function (BBB score) [1]: significant recovery in hind limb motor function (P<0.001)
effect on interleukin-12 (IL-12) expression (interleukin-12 (IL-12)): has an inhibitory effect on interleukin-12 (IL-12) expression
IL-12 concentration in the blood (MRL-lpr/lpr mouse): reduces IL-12 concentration in the blood
cell death of T lymphocytes (MRL-lpr/lpr mouse): induces cell death of T lymphocytes
size of lymphatic organs (lymph node and spleen) (MRL-lpr/lpr mouse): causes shrinking of lymphatic organs
spinal cord evoked potential (SCEP) amplitude [2]: a tendency for a recovery in the SCEP amplitude

From patent US20070167399A1, “Therapeutic drug for traumatic neural disease (disorder) and/or motor function disorder” (Glycoscience Laboratories, Inc., priority 2006, published 2007)
